Data as given in patent US6967196B1, “Sulfonamide compounds and uses thereof” (Bristol-Myers Squibb Company, priority 1999, dated 2005).
Where a name gives a salt, the structure may show the parent alone. Read-outs that look alike come from different tables or passages of the source.

System: amyloid β production in transfected H4 (human neuroglioma) cells stably expressing APP constructs
Assay: In vitro cell-based assay of inhibitors of amyloid β production (ELISA)
Conditions: transfected H4 cells stably expressing APP, approximately 16 hours incubation, amyloid β in medium by ELISA, read-out: ACTIVITY (IC50, inhibition of amyloid β production)
Procedure, shortened: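 Cells expressing wild-type or variant APP were plated ≥6 h before medium was replaced with compound-containing medium (initial screen 10-100 μM) and incubated ~16 h. Secreted Aβ in medium was quantified by sandwich ELISA (C-terminal-specific mouse monoclonal capture, N-terminal rabbit polyclonal detection) against an Aβ standard curve.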

Structure (SMILES) | IC50 (Homo sapiens, 16 h) [nM] | further results
O=S(=O)(c1ccc(Cl)cc1)N(CCc1ccccc1OCCCN1CCCCC1)c1ccccc1 [Example 972, 4-chloro-N-phenyl-N-(2-{2-[3-(1-piperidinyl)propoxy]phenyl}ethyl)benzenesulfonamide hydrochloride] | > 500 | –
O=S(=O)(c1ccc(Cl)cc1)N(Cc1ccccc1C#CCCN1CCCCC1)c1ccccc1 [Example 973, 4-chloro-N-phenyl-N-{2-[4-(1-piperidinyl)-1-butynyl]benzyl}benzenesulfonamide] | > 500 | –
O=S(=O)(c1ccc(Cl)cc1)N(Cc1ccccc1OCCCN1CCCCC1)Cc1c(F)c(F)c(F)c(F)c1F [Example 974, 4-chloro-N-(2,3,4,5,6-pentafluorobenzyl)-N-{2-[3-(1-piperidinyl)propoxy]benzyl}benzenesulfonamide hydrochloride] | > 500 | –
O=S(=O)(c1ccc(Cl)cc1)N(Cc1cc(Cl)ccc1O)c1ccccc1 [Example 975, 4-chloro-N-(5-chloro-2-hydroxybenzyl)-N-phenylbenzenesulfonamide] | > 500 | –
O=S(=O)(c1ccc(Cl)cc1)N(Cc1ccccc1OCCCCCN1CCCCC1)c1ccccc1 [Example 976, 4-chloro-N-phenyl-N-(2-{[5-(1-piperidinyl)pentyl]oxy}benzyl)benzenesulfonamide hydrochloride] | > 500 | –
O=S(=O)(c1ccc(Cl)cc1)N(Cc1ccccc1OCCCCN1CCCCC1)c1ccccc1 [Example 977, 4-chloro-N-phenyl-N-{2-[4-(1-piperidinyl)butoxy]benzyl}benzenesulfonamide hydrochloride] | > 500 | –
O=S(=O)(c1ccc(Cl)cc1)N(Cc1ccccc1CCCCCN1CCCCC1)c1ccccc1 [Example 978, 4-chloro-N-phenyl-N-{2-[5-(1-piperidinyl)pentyl]benzyl}benzenesulfonamide hydrochloride] | > 500 | –
O=S(=O)(c1ccc(Cl)cc1)N(Cc1ccccc1OCCCNC1CC1)c1ccccc1 [Example 979, 4-chloro-N-{2-[3-(cyclopropylamino)propoxy]benzyl}-N-phenylbenzenesulfonamide hydrochloride] | > 500 | –
CCC[C@@H](C)N(Cc1ccccc1OCCCN1CCCCC1)S(=O)(=O)c1ccc(Cl)cc1 [Example 980, 4-chloro-N-[(1R)-1-methylbutyl]-N-{2-[3-(1-piperidinyl)propoxy]benzyl}benzenesulfonamide hydrochloride] | – | IC50 (hydrochloride): > 500 nM
O=S(=O)(c1ccc(Cl)cc1)N(Cc1ccccc1CCCCN1CCCCC1)c1ccccc1 [Example 981, 4-chloro-N-phenyl-N-{2-[4-(1-piperdinyl)butyl]benzyl}benzenesulfonamide hydrochloride] | – | IC50: > 500 nM
O=S(=O)(c1ccc(Cl)cc1)N(Cc1ccccc1OCCCSc1ccccc1)c1cc(F)ccc1F [Example 982, 4-chloro-N-(2,5-difluorophenyl)-N-{2-[3-(phenylsulfanyl)propoxy]benzyl}benzenesulfonamide] | > 500 | –
O=S(=O)(c1ccc(Cl)cc1)N(Cc1ccccc1OCCCN1CCCCC1)CC1CC1 [Example 984, 4-chloro-N-(cyclopropylmethyl-N-{2-[3-(1-piperidinyl)propoxy]benzyl}benzenesulfonamide hydrochloride] | – | IC50: > 500 nM
C=CCN(Cc1ccccc1OCCCN1CCCCC1)S(=O)(=O)c1ccc(Cl)cc1 [Example 985, N-allyl-4-chloro-N-{2-[3-(1-piperidinyl)propoxy]benzyl}benzenesulfonamide hydrochloride] | > 500 | –
O=S(=O)(c1ccc(Cl)cc1)N(Cc1ccccc1OCCCN1CCCCC1)C1CCOCC1 [Example 986, 4-chloro-N-{2-[3-(1-piperidinyl)propoxy]benzyl}-N-tetrahydro-2H-pyran-4-ylbenzenesulfonamide hydrochloride] | > 500 | –
COC(=O)[C@H](c1ccccc1)N(c1cc(F)ccc1F)S(=O)(=O)c1ccc(Cl)cc1 [Example 987, methyl (2S)-1-{[(4-chlorophenyl)sulfonyl]-2,5-difluoroanilino}(phenyl)ethanoate] | – | IC50: > 500 nM
